Measurements published in patent publication US8551942B2, “Lyophilized anti-fungal compositions” (Merck Sharp & Dohme Corp., priority 2007, dated 2013).

Assay: Glass transition temperature by differential scanning calorimetry (DSC)
Format: physicochemical
Settings: trehalose lyophilized in the same manner as the composition; average of samples
Protocol: The glass transition temperatures referred to herein (e.g., Tg(s) and Tg(c)) are the transition temperatures determined using differential scanning calorimetry (DSC). DSC measures the change in heat capacity between the glassy and rubbery states and is typically indicated by a change in baseline in a DSC thermogram.
The Tg(c) of the lyophilized composition was determined using a DSC Q2000 (TA Instruments) under a stream of nitrogen gas at 50 mL/minute as the purge gas. Several samples of the lyophilized composition (each about 5 mg) were prepared in a nitrogen purged glove box, and each was loaded into an aluminum DSC pan and hermetically sealed. The pans along with an empty pan as control were run in the DSC. The pans were first equilibrated at 25° C., then modulated at ±0.5° C. every 60 seconds, and then the temperature was raised at a rate of 2.5° C. per minute to a final temperature of 140° C. The samples was determined to have a Tg(c) of 97±2° C.
Several samples of trehalose were lyophilized in the same manner as set forth above for the caspofungin diacetate composition. The glass transition temperature Tg(s) of each of the lyophilized trehalose samples was determined using the instrument and procedure employed to determine Tg(c) described in the preceding paragraph. The average Tg(s) of the samples was 118±2° C.

OC[C@H]1O[C@H](O[C@H]2O[C@H](CO)[C@@H](O)[C@H](O)[C@H]2O)[C@H](O)[C@@H](O)[C@@H]1O [trehalose]
Tg(s): 118±2 °C
